Assay [1] concerns MCF-7 cells. In words: MCF-7 cell viability assay (Alamar Blue). It counts as cell-based, human. The method, then: (§1) Initially, the newly synthesized oxadiazoles were examined in cell viability studies in human breast cancer (MCF-7) cells using Alamar Blue assays.
(§2) MCF-7 and MDA-MB-231 (2000) cells were cultured in MEM or Leibovitz’s L-15 medium enriched with 2% FBS and maintained in a humidified atmosphere of 5% CO2 at 37 °C [44]. DMSO dissolved compounds were kept as a stock solution, and diluted with a cell culture medium to the desired concentration. Cancer cells (4 × 10^3) were grown overnight in 96-well plates, cultured, and treated with oxadiazoles or Olaparib at 0, 0.01, 0.1, 10, 100, and 1000 µM concentrations for 72 h. The inhibitory effect of the compounds was assessed using Alamar Blue reagent.
(§3) MCF-7 and MDA-MB-231 were treated with 5u, 5s and Olaparib (0, 0.01, 0.1, 1, 10, 100 µM) for 72 h, respectively. The viability of MCF-7 (A) and MDA-MB-231 cells (B) were analyzed using a microplate reader to measure the fluorescence of Alamar Blue reagent (excitation wavelength is between 530–560 nm and emission wavelength is 590 nm). The results are means of triplicate determinations.

For assay [2], the system named is MDA-MB-231 cells. In words: MDA-MB-231 cell viability assay (Alamar Blue). It counts as cell-based, human. The following applies: MDA-MB-231, 72 h. The method, then:
as §1, §2, §3
For orientation: Alamar Blue is a resazurin reagent that responds to reducing activity.

Assay [3] deals with MCF-7 cells. As to the kind of experiment: Western blot, PARP1 cleavage in MCF-7 cells. It counts as cell-based, human. The settings on record: MCF-7, 1 or 10 µM, 60 h. The method, then:
(§4) Western blot analysis was performed to determine the levels of PARP1 cleavage and p-H2AX in MCF-7 and MDA-MB-231 cells using previously reported methods. Cells at 50–60% confluence were treated with compounds and incubated for 60 h in 2% FBS. MCF-7 and MDA-MB-231 cells were also treated with Olaparib, 5u, or 5s and the levels of cleaved PARP1 and p-H2A-X were determined using the respective antibodies.
(§5) Figure 4 The effect of compounds 5u, 5s, and Olaparib on PARP1 cleavage (upper panel of A,B) phosphorylation of H2A-X (Ser139) (lower panel of A,B), and CASPASE-3 activity (C,D) in MCF-7 and MDA-MB-231 cells. Cancer cells were treated with or without compounds 5u, 5s,and Olaparib (1 or 10 µM). The protein levels after treatment were observed by western blot analysis. GAPDH was used as input control. The data are expressed as mean ± SEM. ** p ≤ 0.01; *** p ≤ 0.001.
A general note: A western blot detects proteins with antibodies after separation by electrophoresis.

The test system of assay [4] is MDA-MB-231 cells. As to the kind of experiment: Western blot, PARP1 cleavage in MDA-MB-231 cells. It counts as cell-based, human. The settings on record: MDA-MB-231, 1 or 10 µM, 60 h. The method, then:
as §4, §5

Assay [5] relates to MCF-7 cells. In words: Western blot, p-H2AX (Ser139) in MCF-7 cells. It counts as cell-based, human. The following applies: MCF-7, 1 or 10 µM, 60 h. The method, then: as §4, §5
The test system of assay [6] is MDA-MB-231 cells. As to the kind of experiment: Western blot, p-H2AX (Ser139) in MDA-MB-231 cells. The settings on record: MDA-MB-231, 1 or 10 µM, 60 h. It counts as cell-based, human. The method, then: as §4, §5
The test system of assay [7] is MCF-7 cells. As to the kind of experiment: Foci formation assay, MCF-7 cells. It counts as cell-based, human. The settings on record: MCF-7, crystal violet. The method, then:
(§6) MCF-7 and MDA-MB-231 cells were plated in six-well plates in 2 mL media with or without compounds and cultured. When foci had formed, MCF-7 and MDA-MB-231 cells were washed with PBS and fixed with ice-cold methanol for 10 min at 4°C. Methanol was removed and crystal violet solution was used to stain foci at room temperature for 10 min. The resultant solution was removed; immobilized MCF-7 and MDA-MB-231 cells were rinsed with distilled water and dried at room temperature.
(§7) Figure 5 Compounds 5u, 5s, and Olaparib inhibited the foci formation of MCF-7 (left panel of A) and MDA-MB-231 (left panel of B) cells. Visualization of foci formed was achieved by use of Crystal Violet. Inhibition of foci formation was also quantified (right panels of both A,B) The data are expressed as mean ± SEM. * p ≤ 0.05; ** p ≤ 0.01; *** p ≤ 0.001.

In assay [8] the test system is MDA-MB-231 cells. In words: Foci formation assay, MDA-MB-231 cells. It counts as cell-based, human. The settings on record: MDA-MB-231, crystal violet. The method, then: as §6, §7
For assay [9], the system named is MCF-7 cells. As to the kind of experiment: 3D Matrigel growth, MCF-7 cells. It counts as cell-based, human. The settings on record: MCF-7, 4% Matrigel, 1 or 10 µM, Alamar Blue. The method, then: (§8) Cells were grown in a medium containing 4% Matrigel. Cells were treated with vehicles or compounds 5s, 5u, or Olaprib (1 or 10 µM), after colonies had formed. Compounds were added into the culture medium every 3 days for a total of 2 cycles. Alamar Blue assay was used for quantification of live cells. The data are expressed as mean ± SEM. * p ≤ 0.05; ** p ≤ 0.01; *** p ≤ 0.001.

The subject of assay [10] is MDA-MB-231 cells. In words: 3D Matrigel growth, MDA-MB-231 cells. It counts as cell-based, human. The settings on record: MDA-MB-231, 4% Matrigel, 1 or 10 µM, Alamar Blue. The method, then:
as §8

In assay [11] the test system is PARP1. The following applies: read-out: IC50, PARP1 activity; cited from earlier work.
The subject of assay [12] is PARP1. The following applies: read-out: cellular EC50; cited from earlier work.
In assay [13] the target is autophagy activating kinase 1 (ULK1). Further details: method as in PMID 32967366. The following applies: cited from earlier work.
Assay [14] addresses T1, recombinant human PARP enzyme (PARP1) (Homo sapiens, UniProt P09874).
T1 construct: purchased R&D Systems Ltd., Abingdon, UK 4677-096-K
In words: PARP activity, PARP/Apoptosis Universal Colorimetric Assay Kit. It counts as biochemical. The settings on record: n = 3. The method, then: PARP activity was measured using the PARP/Apoptosis Universal Colorimetric Assay Kit (4677-096-K, R&D Systems Ltd., Abingdon, UK). The enzyme inhibition assay uses the histone proteins immobilized 96-well plate, which measures the incorporation of ADP-ribose (biotin-tagged), followed by detection using streptavidin-conjugated horse-radish peroxidase, and finally the color development after the addition of substrate. Oxadiazoles were incubated with the recombinant human PARP enzyme prior to detection.

The mark [15] stands for this setting: Homo sapiens, MCF7, 72 h, MCF-7, 72 h, Alamar Blue, Figure 2A, read-out: Log IC50, MCF-7 (converted).
The mark [16] stands for this setting: Homo sapiens, MCF7, 72 h, MCF-7, 72 h, Alamar Blue, read-out: IC50, cell viability of MCF-7 cells.
Where [17] appears, read: MCF-7, 72 h, Alamar Blue, read-out: IC50, cell viability of MCF-7 cells.
Setting [18] is: Homo sapiens, Alamar Blue, Figure 2B, read-out: Log IC50, MDA-MB-231 (converted).
Setting [19] is: Homo sapiens, Alamar Blue, read-out: IC50, cell viability of MDA-MB-231 cells.
[20] abbreviates: Alamar Blue, read-out: IC50, cell viability of MDA-MB-231 cells.

The values that follow come from PMC8839658, “Design and Activity of Novel Oxadiazole Based Compounds That Target Poly(ADP-ribose) Polymerase” (Molecules, 2022).

For orientation: IC50 means the concentration at which inhibition is half-maximal. The EC50 is the midpoint of the concentration-response curve. The inhibition is the drop in the measured response relative to a control, in per cent.

The structures appear in SMILES notation. Read-outs that look alike come from different tables or passages of the source.

T1 sequence (P09874 whole entry): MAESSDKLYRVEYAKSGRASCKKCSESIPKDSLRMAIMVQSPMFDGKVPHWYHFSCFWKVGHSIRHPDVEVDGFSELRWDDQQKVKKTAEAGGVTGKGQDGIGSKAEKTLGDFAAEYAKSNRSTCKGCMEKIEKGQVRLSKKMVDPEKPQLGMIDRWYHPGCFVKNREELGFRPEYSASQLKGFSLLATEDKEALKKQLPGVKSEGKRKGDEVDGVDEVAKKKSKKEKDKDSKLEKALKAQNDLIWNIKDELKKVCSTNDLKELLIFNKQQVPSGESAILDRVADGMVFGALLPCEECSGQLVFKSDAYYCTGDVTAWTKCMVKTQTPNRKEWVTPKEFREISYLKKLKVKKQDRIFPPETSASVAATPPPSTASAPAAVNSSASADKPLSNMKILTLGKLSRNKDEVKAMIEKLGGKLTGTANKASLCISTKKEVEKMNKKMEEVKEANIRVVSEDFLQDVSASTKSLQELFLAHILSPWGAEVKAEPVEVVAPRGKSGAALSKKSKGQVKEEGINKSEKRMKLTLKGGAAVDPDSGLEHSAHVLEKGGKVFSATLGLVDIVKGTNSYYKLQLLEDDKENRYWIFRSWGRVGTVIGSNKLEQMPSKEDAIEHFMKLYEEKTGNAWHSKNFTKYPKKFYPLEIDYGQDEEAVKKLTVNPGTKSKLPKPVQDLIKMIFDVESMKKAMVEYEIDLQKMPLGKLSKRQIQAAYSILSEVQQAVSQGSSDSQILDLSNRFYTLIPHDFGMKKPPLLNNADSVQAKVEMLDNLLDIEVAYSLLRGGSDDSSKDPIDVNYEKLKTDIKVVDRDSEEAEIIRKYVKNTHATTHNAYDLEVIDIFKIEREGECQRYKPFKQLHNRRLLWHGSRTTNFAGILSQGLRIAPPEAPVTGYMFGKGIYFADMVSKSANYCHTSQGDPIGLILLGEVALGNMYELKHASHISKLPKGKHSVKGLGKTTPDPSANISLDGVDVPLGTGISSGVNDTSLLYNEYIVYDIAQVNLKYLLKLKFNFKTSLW

Take `O=C(c1cc(Cc2n[nH]c(=O)c3ccccc23)ccc1F)N1CCN(C(=O)C2CC2)CC1` [Olaparib, reference compound]: the IC50 in the assay on MCF-7 cells [1] (Homo sapiens, MCF7, 72 h, read-out: Log IC50, MCF-7, MCF-7, 72 h, Alamar Blue (converted), Figure 2A) was 3.31 µM; in the assay with MCF-7 cells [1] (read-out: IC50, cell viability of MCF-7 cells, MCF-7, 72 h, Alamar Blue), 3.2 µM; with MDA-MB-231 cells [2] (Homo sapiens, read-out: IC50, cell viability of MDA-MB-231 cells) it was 70.2 µM; with MDA-MB-231 cells [2] (Homo sapiens, read-out: IC50, cell viability of MDA-MB-231 cells, MDA-MB-231, 72 h, Alamar Blue) it was 70.2 µM; with MDA-MB-231 cells [2] (Homo sapiens, read-out: Log IC50, MDA-MB-231 (converted)) it was 70.8 µM. The PARP1 cleavage entry in the assay with MCF-7 cells [3] and in the assay with MDA-MB-231 cells [4] was “Equivalent levels of cleaved PARP1” throughout. For the same molecule, the “level of p-H2AX” value with MCF-7 cells [5] and with MDA-MB-231 cells [6] was “equivalent increases in the level of p-H2AX” each time. In addition, the foci formation result in the assay on MCF-7 cells [7] and in the assay on MDA-MB-231 cells [8] was “decreased in a dose-dependent manner” in each case. The “3D growth in Matrigel” value with MCF-7 cells [9] and in the assay with MDA-MB-231 cells [10] was “inhibited the growth” each time.

For the molecule `NC(=O)c1cccc2[nH]c(-c3ccc(-c4nnco4)cc3)nc12` [compound 1], the IC50 with PARP1 [11] was 1 nM. Moreover, in the assay with PARP1 [12], the EC50 is 3.7 nM.

For `FC(F)(F)c1cnc(Nc2ccc3c(c2)OCCO3)nc1NC1CC1` [compound 2], the IC50 in [13] is 14 nM.

With `COc1ccc(Cc2nnc(-c3cccc(-c4ccnc(F)c4C)c3)o2)cc1OC` [compound 5s, 2-(3,4-Dimethoxybenzyl)-5-(3-(2-fluoro-3-methylpyridin-4-yl)phenyl)-1,3,4-oxadiazole], the IC50 in the assay with MCF-7 cells [1] (setting [15]) was 15.5 µM; in the assay with MCF-7 cells [1] (setting [16]), 15.3 µM; in the assay on MCF-7 cells [1] (setting [17]) it was 15.3 µM; in the assay with MDA-MB-231 cells [2] (setting [18]) it was 19.1 µM; in the assay on MDA-MB-231 cells [2] (setting [19]), 19.2 µM; in the assay on MDA-MB-231 cells [2] (setting [20]), 19.2 µM. For the same molecule, in [14], the inhibition at 0.01 µM stood at 2.38%. In addition, the inhibition at 0.1 µM in assay [14] is 10.6%. Besides, the inhibition at 1 µM in assay [14] turned out to be 21.3%. Further, the inhibition at 10 µM in assay [14] was 65%. The inhibition at 100 µM in assay [14] was 76.5%. In addition, the PARP1 cleavage result in the assay with MCF-7 cells [3] and in the assay with MDA-MB-231 cells [4] was “Equivalent levels of cleaved PARP1” each time. Also, the “level of p-H2AX” value in the assay on MCF-7 cells [5] and with MDA-MB-231 cells [6] was “equivalent increases in the level of p-H2AX” throughout. Further, the foci formation result in the assay on MCF-7 cells [7] and in the assay on MDA-MB-231 cells [8] was “decreased in a dose-dependent manner” throughout. The “3D growth in Matrigel” value in the assay on MCF-7 cells [9] and with MDA-MB-231 cells [10] was “roughly equivalent efficacy to Olaparib” in each case.

On to `COc1ccc(Cc2nnc(-c3cccc(-c4cccc(C=O)c4)c3)o2)cc1` [compound 5u, 3′-(5-(4-Methoxybenzyl)-1,3,4-oxadiazol-2-yl)-[1,1′-biphenyl]-3-carbaldehyde], for which the IC50 with MCF-7 cells [1] (setting [15]) is 1.45 µM; in the assay on MCF-7 cells [1] (setting [16]), 1.45 µM; with MCF-7 cells [1] (setting [17]) it was 1.4 µM; with MDA-MB-231 cells [2] (setting [18]) it was 29.5 µM; in the assay with MDA-MB-231 cells [2] (setting [19]), 29.3 µM; in the assay with MDA-MB-231 cells [2] (setting [20]) it was 29.3 µM. Besides, the inhibition at 0.01 µM in [14] stood at 4.82%. The inhibition at 0.1 µM in assay [14] stood at 6.84%. The inhibition at 1 µM in assay [14] is 45.4%. Besides, the inhibition at 10 µM in assay [14] amounted to 54.2%. In addition, the inhibition at 100 µM in [14] is 82.2%. For the same molecule, the PARP1 cleavage result with MCF-7 cells [3] and in the assay with MDA-MB-231 cells [4] was “Equivalent levels of cleaved PARP1” in each case. Also, the “level of p-H2AX” value in the assay on MCF-7 cells [5] and with MDA-MB-231 cells [6] was “equivalent increases in the level of p-H2AX” throughout. For the same molecule, the foci formation result with MCF-7 cells [7] and with MDA-MB-231 cells [8] was “decreased in a dose-dependent manner” throughout. Also, the “3D growth in Matrigel” value in the assay with MCF-7 cells [9] and in the assay on MDA-MB-231 cells [10] was “roughly equivalent efficacy to Olaparib” each time.
